Publication PMC12446476 (Nature Communications, 2025)
≈ marks a conversion by molar mass, not a printed value. Like-named read-outs stand apart in the source and are kept apart here.

Test system: N. gonorrhoeae
Experiment: MIC determination, agar dilution (CLSI)
Type: cell-based, Neisseria gonorrhoeae
Settings: Neisseria gonorrhoeae
Procedure, shortened: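 For N. gonorrhoeae, WHO 2024 reference strains served as quality control, only whole doubling-dilution MICs were reported, and isolates were classified by EUCAST v14.0 breakpoints or ECOFF. Time-kill assays followed CLSI in Columbia broth with 1% IsoVitaleX, and viable counts came from plating serial dilutions on GC agar with IsoVitaleX.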

Work on `Cc1c(CN(C)C(=O)/C=C/c2cnc3c(c2)N[C@H](C)[C@H](O)C(=O)N3)oc2ccccc12` [Debio 1453] yielded an MIC (WHO K, agar dilution, read-out: MIC) of 0.06 µg/mL (≈ 0.143 µM), an MIC (WHO L, agar dilution, read-out: MIC) of 0.03 µg/mL (≈ 0.0713 µM) and an MIC (WHO M, agar dilution, read-out: MIC) of 0.06 µg/mL (≈ 0.143 µM). For the same compound, the MIC (WHO O, agar dilution, read-out: MIC) was 0.06 µg/mL (≈ 0.143 µM), the MIC (WHO P, agar dilution, read-out: MIC) was 0.125 µg/mL (≈ 0.297 µM) and the MIC (WHO Q, agar dilution, read-out: MIC) was 0.06 µg/mL (≈ 0.143 µM). It also gave an MIC (WHO R, agar dilution, read-out: MIC) of 0.06 µg/mL (≈ 0.143 µM), an MIC (WHO S2, agar dilution, read-out: MIC) of 0.06 µg/mL (≈ 0.143 µM) and an MIC (WHO U, agar dilution, read-out: MIC) of 0.125 µg/mL (≈ 0.297 µM). The MIC (WHO V, agar dilution, read-out: MIC) was 0.06 µg/mL (≈ 0.143 µM), the MIC (WHO X-07 (CIP-R, CRO-R), mode of multiple measures, read-out: MIC) was 0.125 µg/mL (≈ 0.297 µM) and the MIC (WHO X, agar dilution, read-out: MIC) was 0.06 µg/mL (≈ 0.143 µM). For the same compound, the MIC (WHO Y, agar dilution, read-out: MIC) was 0.06 µg/mL (≈ 0.143 µM), the MIC (WHO Z, agar dilution, read-out: MIC) was 0.06 µg/mL (≈ 0.143 µM) and the MIC (clinical N. gonorrhoeae isolate 1, Sweden 2023, read-out: Minimum inhibitory concentration) was 0.064 µg/mL (≈ 0.152 µM). It also gave an MIC (clinical N. gonorrhoeae isolate 2, Sweden 2023, read-out: Minimum inhibitory concentration) of 0.032 µg/mL (≈ 0.0761 µM), an MIC (clinical N. gonorrhoeae isolate 3, Sweden 2023, read-out: Minimum inhibitory concentration) of 0.064 µg/mL (≈ 0.152 µM) and an MIC (clinical N. gonorrhoeae isolate 4, Sweden 2023, read-out: Minimum inhibitory concentration) of 0.032 µg/mL (≈ 0.0761 µM). The MIC (clinical N. gonorrhoeae isolate 5, Sweden 2023, read-out: Minimum inhibitory concentration) was 0.064 µg/mL (≈ 0.152 µM), the MIC (clinical N. gonorrhoeae isolate 6, Sweden 2023, read-out: Minimum inhibitory concentration) was 0.032 µg/mL (≈ 0.0761 µM) and the MIC (clinical N. gonorrhoeae isolate 7, Sweden 2023, read-out: Minimum inhibitory concentration) was 0.064 µg/mL (≈ 0.152 µM). It also gave an MIC (clinical N. gonorrhoeae isolate 8, Sweden 2023, read-out: Minimum inhibitory concentration) of 0.064 µg/mL (≈ 0.152 µM), an MIC (clinical N. gonorrhoeae isolate 9, Sweden 2023, read-out: Minimum inhibitory concentration) of 0.064 µg/mL (≈ 0.152 µM) and an MIC (clinical N. gonorrhoeae isolate 10, Sweden 2023, read-out: Minimum inhibitory concentration) of 0.064 µg/mL (≈ 0.152 µM). The MIC (clinical N. gonorrhoeae isolate 11, Sweden 2023, read-out: Minimum inhibitory concentration) was 0.064 µg/mL (≈ 0.152 µM), the MIC (clinical N. gonorrhoeae isolate 12, Sweden 2023, read-out: Minimum inhibitory concentration) was 0.032 µg/mL (≈ 0.0761 µM) and the MIC (clinical N. gonorrhoeae isolate 13, Sweden 2023, read-out: Minimum inhibitory concentration) was 0.064 µg/mL (≈ 0.152 µM). For the same compound, the MIC (clinical N. gonorrhoeae isolate 14, Sweden 2023, read-out: Minimum inhibitory concentration) was 0.032 µg/mL (≈ 0.0761 µM), the MIC (clinical N. gonorrhoeae isolate 15, Sweden 2023, read-out: Minimum inhibitory concentration) was 0.064 µg/mL (≈ 0.152 µM) and the MIC (clinical N. gonorrhoeae isolate 16, Sweden 2023, read-out: Minimum inhibitory concentration) was 0.064 µg/mL (≈ 0.152 µM). It also gave an MIC (clinical N. gonorrhoeae isolate 17, Sweden 2023, read-out: Minimum inhibitory concentration) of 0.064 µg/mL (≈ 0.152 µM), an MIC (clinical N. gonorrhoeae isolate 18, Sweden 2023, read-out: Minimum inhibitory concentration) of 0.064 µg/mL (≈ 0.152 µM) and an MIC (clinical N. gonorrhoeae isolate 19, Sweden 2023, read-out: Minimum inhibitory concentration) of 0.064 µg/mL (≈ 0.152 µM). The MIC (clinical N. gonorrhoeae isolate 20, Sweden 2023, read-out: Minimum inhibitory concentration) was 0.064 µg/mL (≈ 0.152 µM), the MIC (clinical N. gonorrhoeae isolate 21, Sweden 2023, read-out: Minimum inhibitory concentration) was 0.064 µg/mL (≈ 0.152 µM) and the MIC (clinical N. gonorrhoeae isolate 22, Sweden 2023, read-out: Minimum inhibitory concentration) was 0.125 µg/mL (≈ 0.297 µM). For the same compound, the MIC (clinical N. gonorrhoeae isolate 23, Sweden 2023, read-out: Minimum inhibitory concentration) was 0.064 µg/mL (≈ 0.152 µM), the MIC (clinical N. gonorrhoeae isolate 24, Sweden 2023, read-out: Minimum inhibitory concentration) was 0.125 µg/mL (≈ 0.297 µM) and the MIC (clinical N. gonorrhoeae isolate 25, Sweden 2023, read-out: Minimum inhibitory concentration) was 0.064 µg/mL (≈ 0.152 µM). The MIC (clinical N. gonorrhoeae isolate 26, Sweden 2023, read-out: Minimum inhibitory concentration) was 0.032 µg/mL (≈ 0.0761 µM), the MIC (clinical N. gonorrhoeae isolate 27, Sweden 2023, read-out: Minimum inhibitory concentration) was 0.064 µg/mL (≈ 0.152 µM) and the MIC (clinical N. gonorrhoeae isolate 28, Sweden 2023, read-out: Minimum inhibitory concentration) was 0.064 µg/mL (≈ 0.152 µM). For the same compound, the MIC (clinical N. gonorrhoeae isolate 29, Sweden 2023, read-out: Minimum inhibitory concentration) was 0.064 µg/mL (≈ 0.152 µM) and the MIC (clinical N. gonorrhoeae isolate 30, Sweden 2023, read-out: Minimum inhibitory concentration) was 0.125 µg/mL (≈ 0.297 µM).
